Holding throughout (type): cell-based
Experiment [1] relates to phospho-Akt (Ser473). Kind of experiment: Cellular PI3K/Akt pathway assay (phospho-Akt ELISA). The following applies: Homo sapiens, MCF7 cells, β-Heregulin stimulated, 48 h incubation. From the text:
Cellular PI3K/Akt Pathway Assay
In order to study the cellular activity of the compounds according to the present invention, an Enzyme Linked Immunosorbent Assay (ELISA)-based assay has been used specific phospho-AKT. The assay is based on a Sandwich ELISA kit (PathScan™ Phospho-Akt1 (Ser473); Cell Signaling, USA; #7160). The ELISA Kit detects endogenous levels of phosphorylated Akt protein. A phospho-Akt (Ser473) antibody (Cell Signaling, USA; #9271) has been coated onto the microwells. After incubation with cell lysates, the coated antibody captures the phosphorylated Akt protein. Following extensive washing, Akt1 monoclonal antibody (Cell Signaling, USA; #2967) is added to detect the captured phospho-Akt1 protein. HRP-linked anti-mouse antibody (HRP: horseradish peroxidase; Cell Signaling, USA; #7076) is then used to recognize the bound detection antibody. HRP substrate (=3,3′,5,5′-tetramethylbenzidine (TMB); Cell Signaling, USA; #7160) is added to develop colour. The magnitude of optical density for this developed color is proportional to the quantity of phosphorylated Akt protein.
MCF7 cells (ATCC HTB-22) are seeded into 96 well fate bottom plates at a density of 10000 cells/well. 24 hours after seeding, the cells are serum starved using low-serum medium (IMEM media including 0.1% charcoal treated FCS (FCS: fetal calf serum)). After 24 hours 1 μl each of the compound dilutions (test compounds were dissolved as 10 mM solutions in dimethylsulfoxide (DMSO) and subsequently diluted) are added into each well of the 96 well plates and incubated for 48 h at 37° C. in a humidified atmosphere containing 5% CO2. To stimulate Akt phosphorylation, β-Heregulin (20 ng/ml β-HRG) is added in parallel to the compounds. Wells containing unstimulated control cells (no β-Heregulin stimulation) are incubated with or without the diluted compound. Wells containing untreated control cells (no compound) are filled with medium containing 0.5% v:v DMSO and are or are not stimulated with β-Heregulin.
Cells are harvested and lysed with brief sonification in 1× cell lysis buffer (20 mM Tris (pH7.5), 150 mM NaCl, 1 mM ethylene diaminetetraacetate (EDTA), 1 mM ethylene glycolbis(2-aminoethyl)-N,N,N′,N′-tetraacetic acid (EGTA), 1 vol % Triton X-100, 2.5 mM sodium pyrophosphate, 1 mM β-glycerolphosphate, 1 mM Na3VO4, 1 μg/ml leupeptin). The lysate is centrifuged for 10 min. at 4° C. and the supernatant is transferred to a new tube. 100 μl of sample diluent (0.1 vol % Tween-20, 0.1 vol % sodium azide in phosphate buffered saline (PBS)) are added to a microcentrifuge tube and 100 μl of cell lysate are transferred into the tube and vortexed. 100 μl of each diluted cell lysate are added to the appropriate ELISA well, and incubated overnight at 4° C. The plates are washed 4 times with 1× wash buffer (1 vol % tween-20, 0.33 vol % thymol, in PBS). Next 100 μl of detection antibody (Akt1 (2H10) monoclonal detection antibody; Cell Signaling, USA; #2967) are added to each well and incubation continued for 1 h at 37° C. The washing procedure is repeated between each step. 100 μl of secondary antibody (anti-mouse IgG HRP-linked antibody; Cell Signaling, USA; #7076) are added to each well and incubated for 30 min. at 37° C. Than, 100 μl of TMB substrate (0.05% 3,3′,5,5′ tetramethylbenzidine, 0.1% hydrogen peroxide, complex polypeptides in a buffered solution; Cell Signaling, USA; #7160) are added to each well and incubated for 30 min. at 25° C. Finally 100 μl of STOP solution (0.05 vol % α and β unsaturated carbonyl compound) are added to each well and the plate are shaked gently. The absorbance is measured at λ=450 nm (Wallac Victor2; Perkin Elmer, USA) within 30 min. after adding the STOP solution. The analysis of the data is performed using a statistical program (Excel; Microsoft, USA). Preferred compounds show an inhibitory activity towards Akt phosphorylation below 10 μM.

For experiment [2], the system named is phospho-GSK3 (Ser9). The experiment is described as follows: Cellular pGSK3 assay (phospho-GSK3 ELISA). As to conditions: Homo sapiens, MCF7 cells, 48 h incubation, read-out: Cellular pGSK3 pathway assay. How it is done:
In order to study the cellular activity of the compounds according to the present invention, an ELISA-based assay has been established for the phosphorylated protein glycogen synthetase kinase 3 (GSK3). The assay is based on a solid phase sandwich ELISA that detects endogenous levels of phosphorylated GSK3 using a phospho-GSK3 (Ser9) specific antibody (BioSource International, Inc.; Catalog #KHO0461). After incubation with cell lysates, the coated antibody captures the phosphorylated GSK3 protein. Following extensive washing, GSK3 polyclonal antibody is added to detect the captured phospho-GSK3 protein. Secondary antibody (anti-rabbit IgG-HRP) is then used to recognize the bound detection antibody. After the second incubation and washing to remove all the excess anti-rabbit IgG-HRP, a substrate solution is added, which is acted upon by the bound enzyme to produce color. The intensity of this colored product is directly proportional to the concentration of GSK-3β [pS9] present in the original specimen. MCF7 cells (ATCC HTB-22) were seeded into 96 well fate bottom plates at a density of 10000 cells/well. After 24 h 1 μl each of the compound dilutions (test compounds were dissolved as 10 mM solutions in dimethylsulfoxide (DMSO) and subsequently diluted) were added into each well of the 96 well plates and incubated for 48 h at 37° C. in a humidified atmosphere containing 5% CO2. Cells were harvested and lysed in cell extraction buffer (10 mM Tris, pH 7.4, 100 mM NaCl, 1 mM EDTA, 1 mM EGTA, 1 mM NaF, 20 mM Na4P2O7, 2 mM Na3VO4, 1% Triton X-100, 10 vol % glycerol, 0.1 vol % SDS, 0.5 vol % deoxycholate, 1 mM phenylmethylsulfonylfluoride (PMSF)). The lysate were centrifuged for 10 min. at 4° C. and the supernatant were transferred to a new tube. 50 μl of sample diluent (standard diluent buffer, Biosource) were added and 100 μl of cell lysate transferred into the tube and vortexed. 100 μl of each diluted cell lysate were added to the appropriate ELISA well plate and incubated for 3 h at room temperature. The plates were washed 4 times with 1× wash buffer (Biosource). 50 μl of detection antibody (GSK3 (Ser9) detection antibody; BioSource) were added to each well and incubated for 30 min. at room temperature. The washing procedure was repeated between each step. 100 μl of HRP-linked secondary antibody (anti-mouse IgG HRP-linked antibody) were added to each well and incubated for 30 min. at room temperature. 100 μl of TMB substrate (0.05 vol % 3,3′,5,5′ tetramethylbenzidine, 0.1 vol % hydrogen peroxide, complex polypeptides in a buffered solution; Biosource) were added to each well and incubated for 30 min. at room temperature. Finally 100 μl of Stop solution (0.05 vol % α and β unsaturated carbonyl compound) were added to each well and the plate were shaked gently for a few seconds. The absorbance was measured at λ=450 nm (Wallac Victor2; Perkin Elmer, USA) within 30 min. after adding the stop solution.
The analysis of the data was performed using a statistical program (Excel; Microsoft, USA) and the IC50 of pGSK3 inhibition was determined.
For orientation: In an ELISA, binding on a coated surface is turned into a signal by an enzyme label.

For experiment [3], the system named is A549 cells. Kind of experiment: Cellular proliferation/cytotoxicity assay (Alamar Blue), A549. As to conditions: Homo sapiens, 72 h, Alamar Blue (Resazurin), read-out: Anti-proliterative/Cytotoxic activity (A549 cells). The procedure, abridged: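 OvCAR3 (10000 cells/well) or A549 (2000 cells/well) were dosed 24 h after seeding and exposed for 72 h at 37 °C, 5% CO2, in duplicate or more. Resazurin was added for 4 h and fluorescence read at 544/590 nm. Viability is relative to untreated 0.5% DMSO controls, with IC50 by non-linear regression.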
On the technique in general: Alamar Blue is a resazurin reagent that responds to reducing activity.

For `Cc1c(-c2ccccc2)c(-c2ccc(CN3CCC(c4n[nH]c(-c5ccccn5)n4)CC3)cc2)nc2nccn12` [Example 27, 5-methyl-6-phenyl-7-(4-{[4-(5-pyridin-2-yl-1H-1,2,4-triazol-3-yl)piperidin-1-yl]methyl}phenyl)imidazo[1,2-a]pyrimidine], the IC50 in experiment [1] is over 10 µM; in experiment [2], 1 to 10 µM.
Consider `CC(C)c1nc2nc(-c3ccc(CN4CCC(c5n[nH]c(-c6ccccn6)n5)CC4)cc3)c(-c3ccccc3)cn2n1` [Example 28, 2-Isopropyl-6-phenyl-5-(4-{[4-(5-pyridin-2-yl-1H-1,2,4-triazol-3-yl)piperidin-1-yl]methyl}phenyl)[1,2,4]triazolo[1,5-a]pyrimidine], for which the IC50 is 1 to 10 µM in experiment [2] and under 10 µM in experiment [3].
For `COc1c(-c2ccccc2)c(-c2ccc(CN3CCC(c4n[nH]c(-c5ccccn5)n4)CC3)cc2)nc2ccnn12` [Example 29, 7-Methoxy-6-phenyl-5-(4-{[4-(5-pyridin-2-yl-1H-1,2,4-triazol-3-yl)piperidin-1-yl]methyl}phenyl)pyrazolo[1,5-a]pyrimidine], the IC50 is 1 to 10 µM in experiment [2] and over 10 µM in experiment [3].

For the origin of these results see patent publication US8614218B2, “Fused bicyclic pyrimidines” (Bayer Intellectual Property GmbH, priority 2007, dated 2013).
